One may read the AC50 as the concentration at which the activity in the assay is half-maximal.

Inconclusive results are not listed. Calls of active or inactive are those of the source.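 Rule for the calls: active = compound lowering the normal-ribosome reporter at least twice as much as the humanized-ribosome reporter, growth loss under a set limit; inconclusive = no clear call, values can overlap the other calls; inactive = the rest.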

This assay concerns E. coli WT-GFP vs G2058-humanized RFP, fluorescence, 24 h. The assay is described as follows: growth inhibition of wild-type GFP E. coli versus G2058-humanized strain, dose response, G2058 mutant RFP vs wild-type GFP, cherry-pick, two tests (AID 1035470).
The mark [1] stands for this setting: E. coli WT-GFP vs G2058-humanized RFP mixed culture, total growth OD600, 24 h.
Setting [2] is: measured here: G2058 humanized mutant RFP growth.

As for `COc1cc(NC(=O)COC(=O)CC(C)(C)C)c(C)cc1[N+](=O)[O-]`, the AC50 was > 100 µM (inactive). For the same compound, the AC50 under setting [1] was > 100 µM. On to `Cc1nnn(C23CC4CC(CC(CC(=O)Nc5ccc(C)c(C)c5)(C4)C2)C3)n1`, for which the AC50 was > 100 µM (inactive). In addition, under setting [1], the concentration at half-maximal activity (AC50) is > 100 µM.

Turning to `Cc1ccc(CNS(=O)(=O)c2ccc3c(c2)NC(=O)CS3)cc1`, the AC50 is > 100 µM (inactive). As to `O=C(CCCn1c(=S)[nH]c2ccsc2c1=O)Nc1ccc2c(c1)OCCO2`, the AC50 was > 100 µM (inactive). As to `COc1ccc(OC)c(NC(=O)CN(C)CC(=O)Nc2ccccc2Br)c1`, the AC50 under setting [1] is > 100 µM.

With `O=c1[nH]c(C2CCN(S(=O)(=O)c3ccc4c(c3)OCCO4)CC2)nc2c1nnn2Cc1ccccc1F`, the AC50 was > 100 µM (inactive). The AC50 under setting [1] was > 100 µM. Take `OCCN(Cc1ccccc1)Cc1ccc(F)c(F)c1`: the AC50 was > 100 µM (inactive). Turning to `CCOc1ccccc1OCCCC(=O)N1CCN(S(=O)(=O)c2cc(F)ccc2F)CC1`, the AC50 was > 100 µM (inactive). With `COc1ccc(OC)c(S(=O)(=O)Nc2cccc3ccc(O)cc23)c1`, the AC50 was > 100 µM (inactive).

For the compound `COc1ccc(N(CCC(=O)O)S(=O)(=O)c2ccc(C)cc2C)cc1`, the AC50 is > 100 µM (inactive). Also, the AC50 under setting [1] is > 100 µM. For the compound `O=C(COC(=O)C1CC2C=CC1C2)NCCc1ccccc1` (stereo not drawn), the half-maximal activity concentration (AC50) under setting [1] was > 100 µM.

Take `CCc1nnc(NS(=O)(=O)c2ccc(NC(=O)c3cccc(Cl)c3)cc2)s1`: the AC50 was > 100 µM (inactive). The AC50 under setting [1] was > 100 µM. In addition, the concentration at half-maximal activity (AC50) under setting [2] is > 100 µM. Take `COc1ccc(OC)c(NC(=O)COc2ccc(S(=O)(=O)NC(C)C)cc2)c1`: the concentration at half-maximal activity (AC50) under setting [1] is > 100 µM. Consider `COc1ccc(NC(=O)c2ccc(-c3ccc([N+](=O)[O-])cc3)o2)cc1`, for which the concentration at half-maximal activity (AC50) is 9.28 µM. The AC50 (E. coli WT-GFP vs G2058-humanized RFP mixed culture, OD600 growth, 24 h, test 1) is > 100 µM. For the setting “measured here: wild-type GFP, test 1”, this compound had an AC50 of 4.75 µM. As for `CC(C)C[C@H]1COc2cc(Br)ccc2S(=O)(=O)N1`, the AC50 is > 100 µM (inactive). For the same compound, under setting [1], the AC50 was > 100 µM. Moreover, under setting [2], the AC50 was > 100 µM. Take `Nc1[nH]c(C(=O)c2ccccc2)c(-c2ccc(Br)cc2)c1C(=O)c1cccs1`: the AC50 was > 100 µM (inactive). Besides, under setting [1], the AC50 was > 100 µM. Regarding `CCOC(=O)c1c(C)[nH]c(C)c1S(=O)(=O)NCCN1CCN(c2ccccc2F)CC1`, the AC50 was > 100 µM (inactive). In addition, the AC50 under setting [1] was > 100 µM. For `O=C(NCc1ccccc1Cl)c1ccc2c(c1)SC1=NS(=O)(=O)CCN12` the same measures were > 100 µM (inactive) and > 100 µM. For `O=C(COn1nnc2ccc(C(F)(F)F)cc21)Nc1c(Cl)cccc1Cl` the same measures were > 100 µM (inactive) and > 100 µM. As for `Cc1ccc(-c2nc(CN3CCCCC3c3cccc(F)c3)c(C)o2)o1` (stereo not drawn), the AC50 under setting [1] was > 100 µM. `CCOC(=O)C1(CCCc2ccccc2)CCN(C(=O)CCn2cncn2)CC1`: the AC50 is > 100 µM (inactive). Turning to `CC(C)CNC(=O)c1cccc(NC(=O)C(C)Oc2ccccc2)c1` (stereo not drawn), the AC50 was > 100 µM (inactive).

On to `O=C(Nc1cccc(O)c1)c1cccc(S(=O)(=O)Nc2cccc(O)c2)c1`, for which the AC50 was > 100 µM (inactive).

For the compound `Cn1ccc2cc(-c3ccc4ncnc(NCc5cccs5)c4c3)ccc21`, under setting [1], the half-maximal activity concentration (AC50) was > 100 µM.

For `O=C(Nc1cc(S(=O)(=O)N2CCCCC2)ccc1N1CCCCC1)C1CC1`, the AC50 is > 100 µM (inactive).

As for `O=C(Nc1nc2ccccc2n1CCN1CCOCC1)c1ccccc1`, the AC50 was > 100 µM (inactive).

Consider `CC(C)(C)c1ccc(-c2noc(CCC(=O)NCc3ccco3)n2)cc1`, for which the AC50 is > 100 µM (inactive). For the same compound, the AC50 under setting [1] was > 100 µM. Also, under setting [2], the concentration at half-maximal activity (AC50) is > 100 µM. In the case of `CN1CCN(c2nc(Nc3ccc(O)cc3)nc3ccccc23)CC1`, the AC50 is > 100 µM (inactive). Also, the AC50 under setting [1] is > 100 µM. `O=C(CSc1nc(C2CC2)nc2ccccc12)Nc1ccccc1N1CCOCC1`: the AC50 was > 100 µM (inactive). For the same compound, the AC50 under setting [1] is > 100 µM. `CCc1ccc(OCC(=O)NCc2ccco2)c(Br)c1`: the AC50 was > 100 µM (inactive). As for `Nc1nc(Nc2ccccc2F)nc(N2CCOCC2)c1[N+](=O)[O-]`, the AC50 was > 100 µM (inactive). Turning to `CC1CCCN(c2ccc(C(=O)NCCc3ccccc3)cn2)C1` (stereo not drawn), the AC50 is > 100 µM (inactive). Take `CCN(CC)CC(=O)Nc1sc2c(c1C(=O)c1ccccc1OC)CCC2`: the AC50 is > 100 µM (inactive). As to `CCc1ccc2nc(N(CCCN(C)C)C(=O)c3ccc4c(c3)OCCO4)sc2c1`, the AC50 is > 100 µM (inactive). Under setting [1], the AC50 is > 100 µM. In the case of `C[C@@H]1CN([C@@H](C)CO)C(=O)c2cccc(NC(=O)c3nc4ccccc4s3)c2O[C@@H]1CN(C)CC1CC1`, the AC50 under setting [1] was > 100 µM. With `CN(C)CCCN(C(=O)CCSc1ccccc1)c1nc2cc3c(cc2s1)OCO3`, the AC50 is > 100 µM (inactive). Also, under setting [1], the AC50 was > 100 µM.

With `CC[n+]1c(C)cc2c(sc3ccccc32)c1C`, the half-maximal activity concentration (AC50) by setting is: under setting [1], > 100 µM; under setting [2], > 100 µM. On to `CCC(=O)Nc1nc2ccc(NC(=O)c3cc(OC)c(OC)c(OC)c3)cc2s1`, for which the AC50 is > 100 µM (inactive).

On to `CCn1c(SCC(=O)Nc2ccc(OC)cc2)nc2nc3c(cc2c1=O)CCCC3`, for which the AC50 under setting [1] turned out to be 47.7 µM. Take `CC(=O)c1c(C)nn(CC(O)COc2ccc3c(c2)CCC3)c1C` (stereo not drawn): the AC50 is > 100 µM (inactive).

For `CCC(=O)Nc1nc2c(OC)ccc(OC)c2s1`, the AC50 was > 100 µM (inactive).

`CCN(C(=O)CSc1cc(C)c2ccc(OC)cc2n1)C1CCS(=O)(=O)C1` (stereo not drawn): the AC50 is > 100 µM (inactive). Further, under setting [2], the AC50 was 3.93 µM. For the compound `CC(C)(CC(=O)O)CC(=O)NCc1c(Cl)cccc1Sc1ccc(Cl)cc1`, the AC50 was > 100 µM (inactive).

On to `O=C(OCC1COc2ccccc2O1)c1ccccc1F` (stereo not drawn), for which the AC50 under setting [2] was > 100 µM. `O=C(NCCc1ccccn1)c1cccc(S(=O)(=O)N2CCc3ccccc32)c1`: the AC50 is > 100 µM (inactive). Further, the AC50 under setting [1] is > 100 µM. With `Cc1cc(C)n2nc(C(=O)Nc3cccc(S(=O)(=O)N(C)c4ccccc4)c3)nc2n1`, the AC50 was > 100 µM (inactive). For `CCOc1ccc(CN(C)C(=O)c2ccc(NS(=O)(=O)c3ccc4[nH]c(=O)[nH]c4c3)cc2)cc1`, the concentration at half-maximal activity (AC50) under setting [1] is > 100 µM. For `Cc1ccc(OCCCC(=O)NC(C)c2ccccc2)c(C)c1` (stereo not drawn), the AC50 is > 100 µM (inactive). On to `CC(=O)NCCOc1nc(N2CCCCC2)nc(N2CCCCC2)n1`, for which the AC50 was > 100 µM (inactive). Same read-out and setting: to `COc1ccc(NC(=O)CCC(=O)c2cccs2)cc1S(=O)(=O)Nc1ccc(Cl)cc1` belongs > 100 µM (inactive). In the case of `NC(=O)c1ccsc1NC(=O)COC(=O)CSc1ccc(Cl)cc1`, the AC50 was > 100 µM (inactive). In addition, the AC50 under setting [1] is > 100 µM. Turning to `COC(C(=O)Nc1ccnn1C1CCN(Cc2ccc(Cl)s2)CC1)c1ccccc1` (stereo not drawn), the AC50 was > 100 µM (inactive). For the same compound, the AC50 under setting [2] is > 100 µM.

Take `N#Cc1cccc(-c2ccc3c(c2)[C@H]2[C@H](CCN2C(=O)c2ccccc2F)[C@H](CO)N3)c1`: the AC50 is > 100 µM (inactive).

Turning to `O=C(COC(=O)CCSc1ccc(F)cc1)NCc1ccc(F)cc1`, the AC50 is > 100 µM (inactive). In addition, under setting [1], the AC50 is > 100 µM.

Regarding `CC(=O)N1CCOc2ccc(S(=O)(=O)N(C)c3ccc(C)cc3)cc21`, the AC50 was > 100 µM (inactive).

On to `CCOc1ccc2oc(-c3ccccc3)c(C(=O)N(C)C)c2c1`, for which the AC50 is > 100 µM (inactive). The AC50 under setting [1] is > 100 µM. In the case of `Cn1nc(C(=O)Nc2cccc(S(=O)(=O)N3CCCCC3)c2)c2ccccc2c1=O`, the AC50 was > 100 µM (inactive). Under setting [1], the AC50 is > 100 µM. On to `Cc1noc(C)c1NC(=O)Nc1ccc2c(c1)C(=O)N([C@@H](C)CO)C[C@@H](C)[C@H](CN(C)C(=O)Nc1ccc3c(c1)OCO3)OCCCC[C@H](C)O2`, for which, under setting [1], the AC50 was > 100 µM. For `O=C(CCCSc1nc2ccccc2s1)NCc1ccc2c(c1)OCO2`, the AC50 is > 100 µM (inactive).

For `CC(=O)Oc1ccc(N(C(C)=O)S(=O)(=O)c2ccc(C)cc2)c2ccccc12`, the AC50 is > 100 µM (inactive). Also, the AC50 under setting [1] was > 100 µM. In the case of `COc1cccc(SCC(=O)N2CCN(c3ccccc3)CC2)c1`, the concentration at half-maximal activity (AC50) under setting [1] is > 100 µM. As to `O=C(O)c1nn2c(C(F)(F)F)cc(-c3cccs3)nc2c1Cl`, the AC50 was > 100 µM (inactive).

For the compound `Nc1ccccc1C#CC(=O)c1ccccc1`, the half-maximal activity concentration (AC50) under setting [1] is 49 µM. Regarding `COc1ccc2nc(SCC(=O)Nc3ccccc3)[nH]c2c1`, the AC50 is > 100 µM (inactive). Turning to `CN(c1ccccc1)S(=O)(=O)c1cccc(NC(=O)CCNC(=O)c2ccc([N+](=O)[O-])cc2)c1`, the AC50 was > 100 µM (inactive). Turning to `CN(C)CCNc1ncnc2c1sc1nc(N3CCCC3)c3c(c12)CC(C)(C)OC3`, the AC50 is > 100 µM (inactive). Also, the AC50 under setting [1] was > 100 µM. Consider `Cc1ccc(-c2nc3ccc(NS(=O)(=O)c4ccccc4)cc3[nH]2)o1`, for which the AC50 is > 100 µM (inactive).

Take `CCCN(Cc1ccco1)S(=O)(=O)c1ccc(OC)c(OC)c1`: the AC50 was > 100 µM (inactive). Under setting [1], the AC50 is > 100 µM. Under setting [2], the AC50 is > 100 µM. With `Cn1c(-[n+]2c(-c3ccccc3)cc(-c3ccccc3)cc2-c2ccccc2)nc2c([N+](=O)[O-])cccc21`, the AC50 is > 100 µM (inactive). Regarding `CC1CCCCN1CC(O)COCCC12CC3CC(CC(C3)C1)C2` (stereo not drawn), the AC50 is > 100 µM (inactive). The AC50 under setting [1] was > 100 µM. For the compound `COc1cccc(NC(=O)COC(=O)Cc2ccc(Br)cc2)c1`, the AC50 was > 100 µM (inactive). Further, under setting [1], the half-maximal activity concentration (AC50) was > 100 µM. As to `CCOC(=O)c1sc(Nc2cccc(Cl)c2)nc1C`, the AC50 was > 100 µM (inactive). Consider `COc1ccccc1OCC(=O)Nc1ccc(S(=O)(=O)N2CCCCCC2)cc1`, for which the AC50 is > 100 µM (inactive). Also, the AC50 under setting [1] was > 100 µM.
